Laboratory results reported in ChEMBL document CHEMBL1201862, “PubChem BioAssay data set” (2004).
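The compound was tested at five concentrations on cells cultured in 96-well plates, with a 48-hour exposure period. GI50 = concentration required for 50% inhibition of growth.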 Active and inactive are the calls of the source. Rule as the data show it: active = GI50 up to about 1.1 µM and inactive = higher.

Experiments:
Experiment in all cases: DTP human tumour cell line panel, 48 h
[1] = system: SK-MEL-28
[2] = system: NCI-H23
[3] = system: A549
[4] = system: HOP-62
[5] = system: NCI-H460
[6] = system: SK-MEL-5
[7] = system: SNB-75
[8] = system: NCI-H522
[9] = system: SNB-19
[10] = system: RXF 393
[11] = system: UACC-62
[12] = system: SN12C
[13] = system: IGROV-1
[14] = system: HCT-116
[15] = system: NCI-H226
[16] = system: COLO 205
[17] = system: OVCAR-8
[18] = system: OVCAR-5
[19] = system: UACC-257
[20] = system: OVCAR-3

Row | SMILES | GI50 [1] | GI50 [2] | GI50 [3] | GI50 [4] | GI50 [5] | GI50 [6] | GI50 [7] | GI50 [8] | GI50 [9] | GI50 [10] | GI50 [11] | GI50 [12] | GI50 [13] | GI50 [14] | GI50 [15] | GI50 [16] | GI50 [17] | GI50 [18] | GI50 [19] | GI50 [20]
1 | Cc1cc(C)nc(NS(=O)(=O)c2ccc(NC(=O)c3cccn4c(=O)c5ccccc5nc34)cc2)n1 | 38.5 µM (inactive) | 35.3 µM (inactive) | > 100 µM (inactive) | > 100 µM (inactive) | 41.5 µM (inactive) | 37.9 µM (inactive) | 32.7 µM (inactive) | 21.5 µM (inactive) | 62.5 µM (inactive) | 23.9 µM (inactive) | 20.5 µM (inactive) | 53.2 µM (inactive) | > 100 µM (inactive) | 53.5 µM (inactive) | 37.6 µM (inactive) | 40.6 µM (inactive) | 27.7 µM (inactive) | > 100 µM (inactive) |  | 
2 | COc1cc(/C=C/c2ccc(OC)c(OC)c2)oc(=O)c1 | > 250 µM (inactive) | 203 µM (inactive) | > 250 µM (inactive) | 124 µM (inactive) | > 230 µM (inactive) | > 250 µM (inactive) | 73.3 µM (inactive) | > 195 µM (inactive) | > 218 µM (inactive) | 57 µM (inactive) | 247 µM (inactive) | > 250 µM (inactive) | > 220 µM (inactive) | > 250 µM (inactive) | > 250 µM (inactive) | > 250 µM (inactive) | 10 µM (inactive) | > 250 µM (inactive) | > 250 µM (inactive) | > 250 µM (inactive)
3 | CCOC(=O)c1ccc(C)c(/N=N/N(C)C)c1 | > 100 µM (inactive) | > 100 µM (inactive) | > 100 µM (inactive) | > 100 µM (inactive) | > 100 µM (inactive) | > 100 µM (inactive) | > 100 µM (inactive) | > 100 µM (inactive) | 86.7 µM (inactive) | > 100 µM (inactive) | > 100 µM (inactive) | > 100 µM (inactive) | > 100 µM (inactive) | > 100 µM (inactive) | > 100 µM (inactive) | > 100 µM (inactive) | > 100 µM (inactive) | > 100 µM (inactive) | > 100 µM (inactive) | > 100 µM (inactive)
4 | COc1cccc(N2C(Cl)C(=O)C2c2c[nH]c3ccccc23)c1 (stereo unspecified) | > 100 µM (inactive) | > 100 µM (inactive) | > 100 µM (inactive) | > 100 µM (inactive) | > 100 µM (inactive) | > 100 µM (inactive) | > 10 µM (inactive) | > 100 µM (inactive) | > 100 µM (inactive) | > 100 µM (inactive) | > 100 µM (inactive) | > 100 µM (inactive) | > 100 µM (inactive) | > 100 µM (inactive) |  | > 100 µM (inactive) | > 100 µM (inactive) | 46.1 µM (inactive) | > 100 µM (inactive) | > 100 µM (inactive)
5 | COc1ccc(CN/C=N/C(C#N)=C(\N)C#N)cc1OC | > 100 µM (inactive) | > 100 µM (inactive) | > 100 µM (inactive) | > 100 µM (inactive) | > 100 µM (inactive) | > 100 µM (inactive) | 76.7 µM (inactive) | > 100 µM (inactive) | > 100 µM (inactive) |  | > 100 µM (inactive) | > 100 µM (inactive) | > 100 µM (inactive) | > 100 µM (inactive) | > 100 µM (inactive) | > 100 µM (inactive) | > 100 µM (inactive) | > 100 µM (inactive) | > 100 µM (inactive) | > 100 µM (inactive)
6 | CCOC(=O)Cn1c(=O)c(C)cn(COCCO)c1=O | > 100 µM (inactive) | > 100 µM (inactive) | > 100 µM (inactive) | > 100 µM (inactive) | > 100 µM (inactive) | > 100 µM (inactive) | > 100 µM (inactive) | > 100 µM (inactive) | > 100 µM (inactive) | > 100 µM (inactive) |  | > 100 µM (inactive) | > 100 µM (inactive) |  | 0.155 µM (active) | > 100 µM (inactive) | > 100 µM (inactive) | > 100 µM (inactive) | > 100 µM (inactive) | > 100 µM (inactive)
7 | Cc1ccc(S(=O)(=O)NC(=N)N(C)N=O)cc1 | > 100 µM (inactive) | > 100 µM (inactive) | 19.1 µM (inactive) | > 100 µM (inactive) | 18.9 µM (inactive) |  | 38.2 µM (inactive) | > 100 µM (inactive) | > 100 µM (inactive) | > 100 µM (inactive) | 26.4 µM (inactive) | > 100 µM (inactive) | > 100 µM (inactive) | > 100 µM (inactive) | > 100 µM (inactive) | 28.1 µM (inactive) | > 100 µM (inactive) | > 100 µM (inactive) | > 100 µM (inactive) | > 100 µM (inactive)
8 | Cc1ccc(C2COc3cc(O)c(O)cc3C2)cc1 (stereo unspecified) | 13.1 µM (inactive) | 23.4 µM (inactive) | 43.6 µM (inactive) | 97.9 µM (inactive) | 55.3 µM (inactive) | 18.9 µM (inactive) | 42 µM (inactive) | 4.06 µM (inactive) | 39.4 µM (inactive) | 11.3 µM (inactive) | 18.5 µM (inactive) | 20.7 µM (inactive) | 14.6 µM (inactive) | 12.4 µM (inactive) | 45.2 µM (inactive) | 12.5 µM (inactive) | 15 µM (inactive) | 94 µM (inactive) | 21.3 µM (inactive) | 13.8 µM (inactive)
9 | CN(C)CC(C)(C)/C(=N\Nc1ccccc1)c1ccccc1 | 39.9 µM (inactive) | > 100 µM (inactive) | 92.5 µM (inactive) | 45.2 µM (inactive) | 53.3 µM (inactive) | 70 µM (inactive) | 37.1 µM (inactive) | 44.3 µM (inactive) | > 100 µM (inactive) | 37.3 µM (inactive) | 14.8 µM (inactive) | 48.8 µM (inactive) | 36.4 µM (inactive) | 68.4 µM (inactive) |  | 64.3 µM (inactive) | 99.8 µM (inactive) | 46.6 µM (inactive) | 51.6 µM (inactive) | 54.8 µM (inactive)
10 | O=C(Nc1ccccc1)c1nn(-c2cc(S(=O)(=O)O)c([N+](=O)[O-])cc2Cl)[n+](-c2cc(S(=O)(=O)[O-])c([N+](=O)[O-])cc2Cl)n1 | > 100 µM (inactive) | > 100 µM (inactive) | > 100 µM (inactive) | > 100 µM (inactive) | > 100 µM (inactive) | > 100 µM (inactive) | > 100 µM (inactive) | > 100 µM (inactive) | > 100 µM (inactive) | > 100 µM (inactive) | > 100 µM (inactive) | > 100 µM (inactive) | > 100 µM (inactive) | > 100 µM (inactive) | > 100 µM (inactive) | > 100 µM (inactive) |  | > 100 µM (inactive) | > 100 µM (inactive) | > 100 µM (inactive)
